Experimental findings from ChEMBL document CHEMBL5230100, “Novel quinazoline-based EGFR kinase inhibitors: A review focussing on SAR and molecular docking studies (2015-2019)” (Eur J Med Chem, 2020) are described below.

For one series, the system named is MCF7. The series can be described thus: Antiproliferative activity against human MCF7 cells assessed as cell growth inhibition incubated for 72 hrs by MTT assay. In kind it is functional, cell-based. As to conditions: MCF7, 72 h. (In general: Tetrazolium dyes change colour on reduction, which living cells bring about.)
Another series concerns PC-3. The series can be described thus: Antiproliferative activity against human PC-3 cells assessed as cell growth inhibition incubated for 72 hrs by MTT assay. In kind it is functional, cell-based. Conditions: PC-3, 72 h.
Series [1] deals with A549. The series can be described thus: cells. As to conditions: Homo sapiens, A549, 72 h. The format is functional, cell-based.
Description: Antiproliferative activity against human A549 cells assessed as cell growth inhibition incubated for 72 hrs by MTT assay
Series [2] addresses T1, Epidermal growth factor receptor (Homo sapiens, UniProt P00533, T790M/L858R). Put plainly: Inhibition of EGFR L858R/T790M mutant (unknown origin) incubated for 10 mins in presence of ATP by mobility shift assay.
In series [3] the test system is HepG2. Put plainly: Antiproliferative activity against human HepG2 cells assessed as cell growth inhibition incubated for 72 hrs by MTT assay. In kind it is functional, cell-based. Conditions: HepG2, 72 h.
For series [4], the target named is T2, Epidermal growth factor receptor (Homo sapiens, UniProt P00533). The series can be described thus: Inhibition of EGFR (unknown origin) incubated for 10 mins in presence of ATP by mobility shift assay.
For series [5], the system named is A549. Put plainly: Radiosensitizing activity against human A549 cells assessed as radiosensitization ratio by MTT assay. The format is functional.
A further series concerns CNE. The series can be described thus: cells. In kind it is functional, cell-based. Conditions: Homo sapiens, 48 h.
Series [6] deals with HepG2. The series can be described thus: cells. In kind it is functional, cell-based. Conditions: Homo sapiens, HepG2, 48 h.
Description: Antiproliferative activity against human HepG2 cells assessed as cell growth inhibition incubated for 48 hrs by MTT assay
Series [7] concerns MDA-MB-231. The series can be described thus: Antiproliferative activity against human MDA-MB-231 cells assessed as cell growth inhibition incubated for 48 hrs by MTT assay. The format is functional, cell-based. As to conditions: MDA-MB-231, 48 h.
Series [8] has as its system A549. Put plainly: cells. In kind it is functional, cell-based. As to conditions: Homo sapiens, A549, 48 h.
Description: Antiproliferative activity against human A549 cells assessed as cell growth inhibition incubated for 48 hrs by MTT assay
The next series has as its system SK-OV-3. Put plainly: cells. Conditions: Homo sapiens, SK-OV-3, 48 h. In kind it is functional, cell-based.
In series [9] the test system is A-431. The series can be described thus: Antiproliferative activity against human A-431 cells assessed as cell growth inhibition incubated for 72 hrs by SRB assay. Conditions: A-431, 72 h. In kind it is functional, cell-based. For orientation: The SRB assay estimates cell density from bound dye.
Series [10] is described as follows: AUC (0 to infinity) in Sprague-Dawley rat plasma at 10 mg/kg, iv by LC-MS/MS analysis. In kind it is ADME, organism-based. Set-up: dose 10 mg/kg, route iv.
The next series relates to PC-9. Put plainly: cells. The format is functional, cell-based. As to conditions: Homo sapiens, PC-9, 72 h.
The target of series [11] is Epidermal growth factor receptor (Homo sapiens, UniProt P00533, 746-750DEL).
The nature of series [12]: AUClast in Sprague-Dawley rat plasma at 10 mg/kg, iv by LC-MS/MS analysis. On the set-up: dose 10 mg/kg, route iv. The format is ADME, organism-based.
The nature of series [13]: MRT (0 to 24 hrs) in Sprague-Dawley rat plasma at 10 mg/kg, iv by LC-MS/MS analysis. The format is ADME, organism-based.
Series [14] deals with A549. Put plainly: Anticancer activity against human A549 cells assessed as cell growth inhibition incubated for 24 hrs by MTT assay. The format is functional, cell-based. Conditions: A549, 24 h.
Series [15] deals with MDA-MB-231. Put plainly: cells. Conditions: Homo sapiens, MDA-MB-231, 72 h.
Description: Antiproliferative activity against human MDA-MB-231 cells assessed as cell growth inhibition incubated for 72 hrs by MTT assay
The next series has as its system MRC5. Put plainly: Antiproliferative activity against human MRC5 cells assessed as cell growth inhibition incubated for 72 hrs by MTT assay. In kind it is functional, cell-based. Conditions: MRC5, 72 h.
The next series deals with NCI-H460. Put plainly: Antiproliferative activity against human NCI-H460 cells assessed as cell growth inhibition incubated for 72 hrs by MTT assay. The format is functional, cell-based. Conditions: NCI-H460, 72 h.
The subject of a further series is HT-29. The series can be described thus: Antiproliferative activity against human HT-29 cells assessed as cell growth inhibition incubated for 72 hrs by MTT assay. In kind it is functional, cell-based.
The next series can be described thus: cells. The format is functional, cell-based. As to conditions: Homo sapiens, HBE, 72 h.
In series [16] the test system is A-431. Put plainly: cells. The format is functional, cell-based. As to conditions: Homo sapiens, A-431, 72 h.
Description: Antiproliferative activity against human A-431 cells assessed as cell growth inhibition incubated for 72 hrs by MTT assay
For series [17], the system named is A549. Put plainly: Antiproliferative activity against human A549 cells assessed as cell growth inhibition incubated for 24 hrs by MTT assay. The format is functional, cell-based. As to conditions: A549, 24 h.
Series [18] has as its system A-431. Put plainly: Antiproliferative activity against human A-431 cells assessed as cell growth inhibition incubated for 24 hrs by MTT assay. In kind it is functional.
In series [19] the target is T1, Epidermal growth factor receptor.
Series [20] concerns the target T2, Epidermal growth factor receptor.
The target of series [21] is Vascular endothelial growth factor receptor 2 (Homo sapiens, UniProt P35968).
Series [22] concerns MDA-MB-231. Put plainly: Antiproliferative activity against human MDA-MB-231 cells assessed as cell growth inhibition incubated for 24 hrs by MTT assay. As to conditions: MDA-MB-231, 24 h. The format is functional, cell-based.
For a further series, the target named is Caspase-3 (Homo sapiens) (UniProt P42574). Put plainly: Activation of caspase 3 (unknown origin). Conditions: filed as activator.

Broadly, the IC50 is the concentration that gives 50% inhibition. As usually defined, the AUC(0-inf) is total exposure, with the tail of the curve extrapolated. What is called AUC(0-t) is exposure summed from dosing to a finite time, without extrapolation to infinity. High values mean high exposure, low ones low exposure. For orientation: MRT last means the average time that molecules of a dose stay in the body.

T1 sequence (P00533 25-1210 T790M/L858R limits assumed): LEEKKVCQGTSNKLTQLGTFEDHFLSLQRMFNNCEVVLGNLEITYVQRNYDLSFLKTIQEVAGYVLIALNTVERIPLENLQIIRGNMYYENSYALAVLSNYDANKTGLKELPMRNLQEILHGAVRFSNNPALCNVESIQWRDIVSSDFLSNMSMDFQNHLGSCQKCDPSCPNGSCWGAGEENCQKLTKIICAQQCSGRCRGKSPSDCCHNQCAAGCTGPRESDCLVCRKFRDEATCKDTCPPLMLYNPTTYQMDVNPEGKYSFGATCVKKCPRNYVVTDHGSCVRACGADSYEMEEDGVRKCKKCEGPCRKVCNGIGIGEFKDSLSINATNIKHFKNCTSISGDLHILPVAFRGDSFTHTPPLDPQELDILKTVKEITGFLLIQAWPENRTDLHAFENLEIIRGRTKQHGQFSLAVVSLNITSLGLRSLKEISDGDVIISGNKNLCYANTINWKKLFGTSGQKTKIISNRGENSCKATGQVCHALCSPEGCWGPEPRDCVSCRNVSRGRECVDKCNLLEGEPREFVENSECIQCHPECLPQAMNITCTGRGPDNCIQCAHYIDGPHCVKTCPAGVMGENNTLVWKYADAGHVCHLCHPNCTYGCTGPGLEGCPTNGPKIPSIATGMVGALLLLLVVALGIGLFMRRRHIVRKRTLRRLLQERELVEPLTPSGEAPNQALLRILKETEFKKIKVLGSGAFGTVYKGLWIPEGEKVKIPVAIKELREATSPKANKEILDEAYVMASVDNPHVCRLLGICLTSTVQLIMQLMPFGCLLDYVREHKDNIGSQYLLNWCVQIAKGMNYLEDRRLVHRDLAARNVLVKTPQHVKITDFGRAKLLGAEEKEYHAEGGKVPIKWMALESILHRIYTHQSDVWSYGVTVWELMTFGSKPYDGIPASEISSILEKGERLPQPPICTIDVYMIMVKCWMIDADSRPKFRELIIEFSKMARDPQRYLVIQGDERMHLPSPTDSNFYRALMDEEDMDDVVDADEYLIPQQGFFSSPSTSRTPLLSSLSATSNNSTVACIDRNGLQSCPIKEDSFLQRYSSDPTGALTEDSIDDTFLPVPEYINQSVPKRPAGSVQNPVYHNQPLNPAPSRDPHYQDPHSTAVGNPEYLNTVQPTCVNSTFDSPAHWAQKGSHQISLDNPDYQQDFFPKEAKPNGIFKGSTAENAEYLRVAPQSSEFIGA
T2 sequence (P00533 whole entry): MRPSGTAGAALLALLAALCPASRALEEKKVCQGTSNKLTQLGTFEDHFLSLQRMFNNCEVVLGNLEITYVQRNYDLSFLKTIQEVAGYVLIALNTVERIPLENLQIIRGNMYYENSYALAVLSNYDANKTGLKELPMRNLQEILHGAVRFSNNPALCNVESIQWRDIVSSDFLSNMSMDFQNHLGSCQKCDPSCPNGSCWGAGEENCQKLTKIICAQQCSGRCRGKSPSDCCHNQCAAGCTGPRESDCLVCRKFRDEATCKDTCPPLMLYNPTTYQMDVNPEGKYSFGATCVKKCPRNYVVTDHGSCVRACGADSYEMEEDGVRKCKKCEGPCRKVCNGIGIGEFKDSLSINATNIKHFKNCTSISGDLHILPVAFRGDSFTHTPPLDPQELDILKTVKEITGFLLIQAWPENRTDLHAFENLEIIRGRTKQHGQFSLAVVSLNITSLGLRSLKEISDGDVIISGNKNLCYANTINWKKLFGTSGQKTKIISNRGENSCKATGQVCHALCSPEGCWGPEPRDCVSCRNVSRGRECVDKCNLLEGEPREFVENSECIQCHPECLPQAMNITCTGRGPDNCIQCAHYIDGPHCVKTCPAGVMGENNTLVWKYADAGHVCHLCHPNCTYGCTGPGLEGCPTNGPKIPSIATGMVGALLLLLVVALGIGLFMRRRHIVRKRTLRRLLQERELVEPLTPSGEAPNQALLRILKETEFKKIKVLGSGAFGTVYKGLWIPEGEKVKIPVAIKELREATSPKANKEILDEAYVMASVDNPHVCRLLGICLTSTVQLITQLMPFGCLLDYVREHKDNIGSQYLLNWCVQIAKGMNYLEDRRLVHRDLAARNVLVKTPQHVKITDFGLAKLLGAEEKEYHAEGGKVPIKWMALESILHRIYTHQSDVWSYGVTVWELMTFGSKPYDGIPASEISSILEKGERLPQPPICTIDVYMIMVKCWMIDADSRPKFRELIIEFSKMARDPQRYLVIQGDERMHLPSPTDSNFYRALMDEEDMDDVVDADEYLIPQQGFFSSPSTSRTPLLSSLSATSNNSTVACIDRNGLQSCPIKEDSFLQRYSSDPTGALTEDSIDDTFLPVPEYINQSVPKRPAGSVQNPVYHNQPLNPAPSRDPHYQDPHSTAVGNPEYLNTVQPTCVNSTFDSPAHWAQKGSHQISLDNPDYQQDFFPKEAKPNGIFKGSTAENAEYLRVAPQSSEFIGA
Chain of Caspase-3 (Homo sapiens) (P42574 29-175 limits assumed): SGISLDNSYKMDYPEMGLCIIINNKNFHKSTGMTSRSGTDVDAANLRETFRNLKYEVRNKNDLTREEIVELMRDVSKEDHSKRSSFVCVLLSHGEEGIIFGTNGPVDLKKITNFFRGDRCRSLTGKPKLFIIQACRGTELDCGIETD
Chain of Caspase-3 (Homo sapiens) (P42574 176-277 limits assumed): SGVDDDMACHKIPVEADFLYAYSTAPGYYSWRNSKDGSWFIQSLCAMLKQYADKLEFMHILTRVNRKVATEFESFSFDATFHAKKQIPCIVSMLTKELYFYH
Chain of Epidermal growth factor receptor (Homo sapiens, UniProt P00533, 746-750DEL) (P00533 whole entry, looked up, stated change not applied): as the sequence (P00533 whole entry) above
Description for CNE: Antiproliferative activity against human CNE cells assessed as cell growth inhibition incubated for 48 hrs by MTT assay
Description for PC-9: Antiproliferative activity against human PC-9 cells assessed as cell growth inhibition incubated for 72 hrs by SRB assay
Description for SK-OV-3: Antiproliferative activity against human SK-OV-3 cells assessed as cell growth inhibition incubated for 48 hrs by MTT assay

`CN(C)CCn1cccc1/C=N/NC(=O)Nc1cc2c(Nc3ccc(F)c(Cl)c3)ncnc2cc1O[C@H]1CCOC1`: the IC50 was found to be 4820 nM with MCF7; 3840 nM in the series on PC-3; 1840 nM in the series on A549 [1]; 5.6 nM in series [2]; 40 nM in the series with HepG2 [3]; 0.05 nM in series [4].

Take `Cc1ccc(Nc2ncnc3ccc(NC(=O)c4cc(OCc5ccccc5)c5c(c4)C(=O)c4cccc(OCc6ccccc6)c4C5=O)cc23)cc1`: the Ratio in the series on A549 [5] came out at 1.88. The IC50 amounted to 2100 nM in the series with CNE; 34900 nM in the series on HepG2 [6]; 3200 nM in the series with MDA-MB-231 [7]; 23300 nM in the series with A549 [8]; 12500 nM in the series with SK-OV-3.

On to `C#Cc1cccc(Nc2ncnc3cc(OC)c(OCCCN4CCOCC4)cc23)c1`, for which the IC50 in the series with A-431 [9] is less than 100 nM; with PC-9 it was 100 nM; in series [11], 1.23 nM. Further, in series [10], the area under the curve AUC(0-inf) was found to be 6150 ng·h/mL. The same molecule displayed an AUC(0-t) in [12] of 6110 ng·h/mL. The molecule also returned an MRT last in series [13] of 3.96 h.

On to `CCc1cccc(NC(=O)CSc2nc3cc4ccccc4cc3c(=O)n2-c2ccc(S(N)(=O)=O)cc2)c1`, for which the IC50 in the series on A549 [14] came to 727 nM.

`CNC(=O)c1cc(Oc2ccc(NC(=O)Nc3ccc(Cl)c(C(F)(F)F)c3)cc2)ccn1` [SORAFENIB]: the IC50 in the series with MCF7 amounted to 2500 nM; in the series with A549 [1], 4470 nM; in the series on MDA-MB-231 [15], 3810 nM; in the series on MRC5 it was 24100 nM; in the series with NCI-H460 it was 2150 nM; in the series with HT-29 (Homo sapiens, HT-29, 72 h), 2500 nM. In addition, in the series on HT-29 (ht-29), the IC50 was 3270 nM.

`C=CC(=O)Nc1cccc(Nc2nc(Nc3ccc(N4CCN(C(C)=O)CC4)cc3OC)ncc2C(F)(F)F)c1` [ROCILETINIB]: the IC50 in the series “cells” was greater than 40000 nM; with A549 [1], 6500 nM; with A-431 [16] it was 1290 nM.

Consider `COc1cc2ncnc(NCc3ccc(Cl)s3)c2cc1OC`, for which, in the series with A549 [17], the IC50 was greater than 50000 nM. In the series on A-431 [18], the IC5 is 3.4 µM.

As to `O=C(O)c1cc(O)c2c(c1)C(=O)c1cccc(O)c1C2=O` [RHEIN], the IC50 is 74600 nM in the series with HepG2 [6] and 138000 nM with A549 [8].

Turning to `O=C(N/N=C/c1cnc(N2CCCC2)nc1)Nc1cc2c(Nc3ccc(F)c(Cl)c3)ncnc2cc1O[C@H]1CCOC1`, the half-inhibitory concentration (IC50) in the series with MCF7 is 2370 nM; with A549 [1], 5900 nM; with HepG2 [3] it was 4630 nM; in series [19], 8.4 nM; in series [20], 6.3 nM.

As to `Cc1cccc(Cl)c1NC(=O)Nc1ccc(-c2nc(NCCN(C)C)c3ccccc3n2)cc1`, the IC50 came to 360 nM in the series with A549 [1]; 750 nM in the series with MDA-MB-231 [15]; 93 nM in series [21]; 89 nM in the series on NCI-H460; 150 nM in the series with HT-29 (Homo sapiens, HT-29, 72 h).

For the molecule `Cc1ccc(NC(=O)CSc2nc3cc4ccccc4cc3c(=O)n2-c2ccc(S(N)(=O)=O)cc2)cc1C`, the IC50 in the series with MDA-MB-231 [22] was found to be 310 nM. The molecule also registered an Activity at Caspase-3 (Homo sapiens) of 546 pg/mL.
